Assays:
[1] = system: human ENaCα mRNA; experiment: ENaCα mRNA knockdown and EC50 in human normal bronchial epithelial cells (NHBEs); format: cell-based; conditions: 48 hrs post transfection, n = 3 donors; for EC50: nine point dose range 0.01-100 nM
Protocol: Human Bronchial Epithelial cells (NHBE cells) obtained from Lonza (Cat. No. CC-2540) were grown at 37 deg in the presence of 5% CO2 and cultured in BEBM basal medium (Lonza, Cat. No. CC-3171) on Biocoat Collagenl coated flasks (Becton Dickinson).
mRNA Knockdown and EC50 in NHBEs: Cells were plated in collagen 1 coated plates and cultured in appropriate culture media. The cells were cultured for 24 hours after plating at 37 deg in the presence of 5% CO2. siNAs were diluted in OptiMEM 1 to 1 uM and the delivery lipid GSK212357A to 25 ug/ml. For formulation of the siNAs equal volumes of the diluted siNA and delivery lipid were combined and incubated for 20 minutes at room temperature. Cells were meanwhile trypsinised and resuspended in antibiotic free BEBM media at 150,000 cells/ml. 20 ul of the formulated siNA and 80 ul of BEBM media was added per well of a 96 well plate (6 replicates/data point/siRNA concentration) so as to give a nine point dose range of the siRNAs (100 nM, 30 nM, 10 nM, 3 nM, 1 nM, 0.3 nM, 0.1 nM, 0.03 nM, 0.01 nM). The time of incubation with the GSK212357A-siNA complexes were 48 hours with one change of media at 24 hours.
RNA Isolation 96 well Plate: Total RNA was isolated from the cells in the 96-well plate format using the Automated SV96 Total RNA Isolation System (Promega) according to the manufacturer's instructions. The Biomek 2000 Laboratory Automation Workstation (Beckman Coulter) was used to apply the transfected cell lysates to a silica membrane. RNase-Free DNase I was then applied directly to the silica membrane to digest contaminating genomic DNA. The bound total RNA was further purified from contaminating salts, proteins and cellular impurities by simple washing steps. Finally, total RNA was eluted from the membrane by the addition of Nuclease-Free Water.
(§1) Quantitative RT-PCR (TaqMan): A series of probes and primers were used for the detection of mRNA transcripts of ENaCα, OAS1, IL8 and GAPDH (as control/normalisation) in the human cell lines. The assays were performed on an ABI 7900HT instrument according to the manufacturer's instructions. Primer Probe sets used GAPDH Forward 5′-[…]-3 (SEQ ID NO: 128), ‘Reverse 5’-GGGCCATCCACAGTCTTCT-3′ (SEQ ID NO: 129), Probe 5′ d FAM-[…]-TAMRA 3′ (SEQ ID NO: 130), ENaCa Forward 5′-[…]-3′ (SEQ ID NO: 131), Reverse 5′-[…]-3′ (SEQ ID NO: 132), Probe 5′ d FAM-[…]-TAMRA 3′ (SEQ ID NO: 133), OAS1 Forward 5′-[…]-3′ (SEQ ID NO: 134), Reverse 5′-[…]-3′ (SEQ ID NO: 135), Probe 5′ d FAM-[…]-TAMRA 3′ (SEQ ID NO: 136), IL8 Forward 5′-CTGGCCGTGGCTCTCTTG-3′ (SEQ ID NO: 137), Reverse 5′-[…]-3′ (SEQ ID NO: 138), Probe 5′ d FAM-[…]-TAMRA 3′ (SEQ ID NO: 139).
TaqMan: Critical threshold values (Ct) were converted to copy numbers corresponding to the particular gene analysed in each well of the 384 well plate. Six identical wells were prepared in each plate for a given treatment. […] Determination of the percentage coefficient of variation (CV) (% C.V.=[standard deviation/average]*100) allowed the omitting of wells whose value was an outlier (so that % C.V.<25). Relative abundance (aka relative expression) of a gene was determined by dividing the mean copy number of that gene with its GAPDH counterpart in that particular sample.
EC50 values were calculated from the data using sigma plot. All calculations of the efficacy and potency of the siNAs were done relative to the non-targeting control siNA.

[2] = system: ENaC; experiment: FLIPR assay of sodium transport in recombinant HEK cells over expressing ENaC; format: cell-based, human; conditions: FLIPR, n = 6, mean of 3 independent experiments
Protocol: (§2) Recombinant HEK293 cell line (expressing ENaC beta & gamma) SCNN1B (P618AY620L)+SCNN1G (P624stop) #24. were grown at 37 deg in the presence of CO2 and were cultured in M1 medium M1+0.5 mg/ml geneticin and 0.2 mg/ml hygromycin.
(§3) Functional Effects on ENaC via FLIPR in Cells Over Expressing ENaCa: A reverse transfection methodology was used to transfect the HEK recombinant cell line. 5 ul of siRNA (diluted in Optimem to the appropriate concentration) was mixed with 5 ul of the Gemini lipid transfection reagent diluted in Optimem in 384 well non-coated FLIPR plate. Plates were incubated at room temperature for 20 minutes to allow complex formation. Cells were harvested, spun down, diluted to 3×10^5/ml and plated out at 40 ul/well (12K/well) in 384 well plate format containing the transfection complex. The plates were incubated overnight for 20 hours. The cells were then transduced with BacMam virus expressing ENaC alpha (BacMam viruses expressing SCNN1A, GRITS 29703, titre 0.356×10^8/ml). 30 ul of virus was added (1.7%) 20K/well, MOI was approximately 1. Cells were incubated for 24 hours. On day of the FLIPR assay, media was aspirated, leaving 10 ul volume. 20 ul of dye per well was loaded (FMP2 Blue dye, R8181, MDS. For each pot, 133 ml Tyrodes buffer was diluted to make 1× stock prior to assay). The plate was incubated for 0.5 hours at room temperature and 10 ul of the compound added on-line prior to FLIPR read (FLIPR settings: protocol Na MP.fcf, with Exposure length 0.4 sec and Filter #2). Compound plate: 1 ul volume, column 1, 2 and 3 are 16, 4 and 0 uM amiloride final (1/200 dilution) (IC80, IC50 and ctrl).

[3] = system: ENaC-alpha mRNA; experiment: ENaC-alpha mRNA knockdown in recombinant HEK cells of the FLIPR assay; format: cell-based, human; conditions: n = 6, mean of 3 independent experiments
Protocol: as §2, §3
RNA isolation 384 well Plate: Extract mRNA using Qiagen Turbo Capture RNA preparation kit, following manufacturer's instructions.
as §1

[4] = final siNA concentration 100 nM

| Substance | Maximum mRNA knockdown NHBEs [1] [%] | EC50 [1] [nM] | % Inhibition of Maximal Response (4 uM amiloride) ([2]; final siNA concentration 10 nM) [%] | % Inhibition of Maximal Response (16 uM amiloride) ([2]; final siNA concentration 10 nM) [%] | % Inhibition of Maximal Response (4 uM amiloride) ([2]; final siNA concentration 20 nM) [%] | % Inhibition of Maximal Response (16 uM amiloride) ([2]; final siNA concentration 20 nM) [%] | % Inhibition of Maximal Response (4 uM amiloride) ([2]; final siNA concentration 50 nM) [%] | % Inhibition of Maximal Response (16 uM amiloride) ([2]; final siNA concentration 50 nM) [%] | % Inhibition of Maximal Response (4 uM amiloride) [2, 4] [%] | % Inhibition of Maximal Response (16 uM amiloride) [2, 4] [%] | % ENaC-alpha mRNA knockdown ([3]; final siNA concentration 10 nM) [%] | % ENaC-alpha mRNA knockdown ([3]; final siNA concentration 20 nM) [%] | % ENaC-alpha mRNA knockdown ([3]; final siNA concentration 50 nM) [%] | % ENaC-alpha mRNA knockdown [3, 4] [%] |
| --- | --- | --- | --- | --- | --- | --- | --- | --- | --- | --- | --- | --- | --- | --- |
| B GcuGuGccuAcAucuucuA TTB / UAGAAGAuGuAGGcAcAGcUU (sense GCUGUGCCUACAUCUUCUATT; antisense UAGAAGAUGUAGGCACAGCUU; siRNA; B caps on sense ends, letter-case modifications not given here, further chemistry not given here) [Site 1388] | 79 | 4.2 | – | – | – | – | – | – | – | – | – | – | – | – |
| B GuGuGGcuGuGccuAcAuc TTB / GAUGuAGGcAcAGccAcAcUU (sense GUGUGGCUGUGCCUACAUCTT; antisense GAUGUAGGCACAGCCACACUU; siRNA; B caps on sense ends, letter-case modifications not given here, further chemistry not given here) [Site 1383] | 64 | 4.9 | – | – | – | – | – | – | – | – | – | – | – | – |
| B uGuGcAAccAGAAcAAAuc TTB / GAUuuGuucuGGuuGcAcAUU (chain 1 UGUGCAACCAGAACAAAUCTT; chain 2 GAUUUGUUCUGGUUGCACAUU; siRNA; B caps on sense ends, letter-case modifications not given here, further chemistry not given here) [Site 782] | 79 | 0.47 | 37.1 | 40.8 | 41.4 | 47.9 | 52.5 | 59.7 | 81.5 | 85.2 | 61.7 | 67.7 | 75.1 | 73.1 |
| B uuAuGGAuGAuGGuGGcuu TTB / AAGccAccAucAuccAuAAUU (sense UUAUGGAUGAUGGUGGCUUTT; antisense AAGCCACCAUCAUCCAUAAUU; siRNA; B caps on sense ends, letter-case modifications not given here, further chemistry not given here) [Site 1181] | 78 | 1.59 | 43.8 | 45.8 | 48.9 | 51.4 | 62.2 | 65.5 | 77.5 | 77.5 | 52.6 | 65.6 | 76.1 | 76.9 |
